Test results reported in PubChem BioAssay (NCI).
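Test compounds were applied to cells in 96-well plates for 48 hours at 5 doses. Here, GI50 denotes the concentration required for 50% inhibition of growth. TGI: concentration producing complete growth inhibition.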

Columns and labels:
Experiment in all cases: growth of human tumour cells (NCI), 48 h
[1] = test system: SF-268 CNS
[2] = test system: HOP-62 NSCLC
[3] = test system: SNB-19 CNS
[4] = test system: CAKI-1 renal
[5] = test system: COLO 205 colon
[6] = test system: KM12 colon
[7] = test system: RPMI-8226 leukemia
[8] = test system: NCI-H23 lung
[9] = test system: MCF7 breast
[10] = test system: SF-295 CNS

COP(=O)(OC)C(NC(c1ccccc1)c1ccccc1)c1ccc2c(c1)OCO2 (stereo not given)
GI50 [1]: 29.2 µM
TGI [1]: 91.8 µM
GI50 [2]: 21.5 µM
TGI [2]: 52.2 µM
GI50 [3]: 23.4 µM
TGI [3]: 47.4 µM
GI50 [4]: 33.2 µM
TGI [4]: 89 µM
GI50 [5]: 52.2 µM
TGI [5]: > 100 µM
GI50 [6]: 30 µM
TGI [6]: 81.3 µM
GI50 [7]: 14.1 µM
TGI [7]: 32.3 µM
GI50 [8]: 31.5 µM
TGI [8]: 88.3 µM
GI50 [9]: 26 µM
TGI [9]: 79 µM
GI50 [10]: 29.5 µM
TGI [10]: > 100 µM

CCCC1c2c(ccc3ccccc23)Oc2ccc3ccccc3c21
TGI [1]: > 100 µM
TGI [2]: > 100 µM
TGI [3]: > 100 µM
TGI [4]: > 100 µM
TGI [5]: > 100 µM
TGI [6]: > 100 µM
TGI [7]: 98.6 µM
TGI [8]: > 100 µM
TGI [9]: 35.6 µM
TGI [10]: 88.6 µM

O=C(O)c1ccc2c(c1)Cc1cc([N+](=O)[O-])ccc1-2
TGI [1]: > 100 µM
TGI [2]: > 100 µM
TGI [3]: > 100 µM
TGI [4]: > 100 µM
TGI [5]: > 100 µM
TGI [6]: > 100 µM
TGI [7]: 77.4 µM
TGI [8]: > 100 µM
TGI [9]: > 100 µM
TGI [10]: > 100 µM

CC[C@]1(O)CC2CN(CCc3c([nH]c4ccccc34)[C@@](C(=O)OC)(c3cc4c(cc3OC)N(C)[C@H]3[C@@](O)(C(=O)OC)[C@H](OC(C)=O)[C@]5(CC)C=CCN6CC[C@]43[C@@H]65)C2)C1 (stereo not given in full)
GI50 [1]: < 0.005 µM
TGI [1]: 8.08 µM
GI50 [2]: < 0.005 µM
TGI [2]: 9.89 µM
GI50 [3]: < 0.005 µM
TGI [3]: 15.6 µM
GI50 [4]: 0.0804 µM
TGI [4]: 21.6 µM
GI50 [5]: < 0.005 µM
TGI [5]: 0.00511 µM
GI50 [6]: < 0.005 µM
TGI [6]: 0.141 µM
GI50 [7]: < 0.005 µM
TGI [7]: 8.48 µM
GI50 [8]: < 0.005 µM
TGI [8]: 26.7 µM
GI50 [9]: < 0.005 µM
TGI [9]: 6.07 µM
GI50 [10]: < 0.005 µM
TGI [10]: 6.03 µM

COc1cc(Nc2nc3cc(N)cc(N)c3nc2-c2ccccc2)cc(OC)c1
GI50 [1]: 5.59 µM
TGI [1]: 55.8 µM
GI50 [2]: 19.6 µM
TGI [2]: 53.8 µM
GI50 [3]: 58.3 µM
TGI [3]: > 100 µM
GI50 [4]: 14.9 µM
TGI [4]: 73 µM
GI50 [5]: 14.5 µM
TGI [5]: 31.4 µM
GI50 [6]: 13.3 µM
TGI [6]: 31.2 µM
GI50 [7]: 1.27 µM
TGI [7]: 10.4 µM
GI50 [8]: 27.5 µM
TGI [8]: > 100 µM
GI50 [9]: 7.86 µM
TGI [9]: 27.1 µM
GI50 [10]: 12.5 µM
TGI [10]: 59.2 µM

C[C@]12CCC3[C@@H](C[C@@H]4SC(Nc5ccccc5)=N[C@@]45CC(=O)CC[C@]35C)[C@@H]1CCC2=O (stereo not given in full)
GI50 [1]: 5.95 µM
TGI [1]: 70 µM
GI50 [2]: 22.4 µM
TGI [2]: > 100 µM
GI50 [3]: 12.9 µM
TGI [3]: > 100 µM
GI50 [4]: 13 µM
TGI [4]: 30.2 µM
GI50 [5]: 12.3 µM
TGI [5]: 37.4 µM
GI50 [6]: 8.27 µM
TGI [6]: 29.3 µM
GI50 [7]: 2.73 µM
TGI [7]: 7.44 µM
GI50 [8]: 18.1 µM
TGI [8]: > 100 µM
GI50 [9]: 3.58 µM
TGI [9]: 32.8 µM
GI50 [10]: 8.98 µM
TGI [10]: > 100 µM

Cc1ccc2c(c1)nc(C(=O)c1ccco1)c(C(F)(F)F)[n+]2[O-]
GI50 [1]: > 100 µM
TGI [1]: > 100 µM
GI50 [2]: > 100 µM
TGI [2]: > 100 µM
GI50 [3]: > 100 µM
TGI [3]: > 100 µM
GI50 [4]: 77 µM
TGI [4]: > 100 µM
GI50 [5]: > 100 µM
TGI [5]: > 100 µM
GI50 [6]: > 100 µM
TGI [6]: > 100 µM
GI50 [7]: 64.6 µM
TGI [7]: > 100 µM
GI50 [8]: 91.8 µM
TGI [8]: > 100 µM
GI50 [9]: > 100 µM
TGI [9]: > 100 µM
GI50 [10]: 64 µM
TGI [10]: > 100 µM

N#CC(=S)Nc1cccc(Cl)c1
TGI [1]: > 100 µM
TGI [2]: > 100 µM
TGI [3]: > 100 µM
TGI [4]: > 100 µM
TGI [5]: > 100 µM
TGI [6]: > 100 µM
TGI [7]: 61.4 µM
TGI [8]: > 100 µM
TGI [9]: > 100 µM
TGI [10]: > 100 µM

COc1ccc(/C=C/C(=O)c2cc3c(N)c(C(=O)Nc4ccccc4Cl)sc3nc2C)cc1
GI50 [1]: 3.39 µM
TGI [1]: 27.9 µM
GI50 [2]: 1.62 µM
TGI [2]: 8.02 µM
GI50 [3]: 3.8 µM
TGI [3]: 23.1 µM
GI50 [4]: 7.51 µM
TGI [4]: > 50 µM
GI50 [5]: 17.2 µM
TGI [5]: > 50 µM
GI50 [6]: 3.48 µM
TGI [6]: > 50 µM
GI50 [7]: 5.72 µM
TGI [7]: > 50 µM
GI50 [8]: 4.58 µM
TGI [8]: > 50 µM
GI50 [9]: 0.25 µM
TGI [9]: 22 µM
GI50 [10]: 3 µM
TGI [10]: > 50 µM

Cc1c(C#N)cccc1-c1cc(-c2cn(Cc3cccc(C(C)(C)O)n3)nn2)nc(N)n1
GI50 [1]: 45.4 µM
TGI [1]: > 100 µM
GI50 [2]: 22.2 µM
TGI [2]: > 100 µM
GI50 [3]: 47.4 µM
TGI [3]: > 100 µM
GI50 [4]: 10.4 µM
TGI [4]: > 100 µM
GI50 [5]: 25.9 µM
TGI [5]: > 100 µM
GI50 [6]: 47.4 µM
TGI [6]: > 100 µM
GI50 [7]: 7.57 µM
TGI [7]: 34.9 µM
GI50 [8]: 26 µM
TGI [8]: > 100 µM
GI50 [9]: 22.4 µM
TGI [9]: > 100 µM
GI50 [10]: 25.2 µM
TGI [10]: > 100 µM
